Experimental findings from patent publication US8193168B2, “Use of a TRPM5 inhibitor to regulate insulin and GLP-1 release” (Redpoint Bio Corporation, priority 2007, dated 2012) are described below.

This test concerns GLUTag cells. Briefly: GLP-1 release from GLUTag cells (GLP-1 ELISA). The format is cell-based, mouse. The following applies: 12.5 mM glucose, FIG. 17. How it is done:
Mouse GLUTag cells are a native intestinal cell line which expresses TRPM5. The cell line was obtained from Dr. Daniel J. Drucker in the Division of Endocrinology, Department of Medicine, at University of Toronto, and grown in Invitrogen Dulbecco's Modified Eagle's Medium (DMEM) high glucose (Cat #: 11995) with 10% fetal bovine serum (FBS) and 1× penn/strep antibiotic mix in a 37° C. incubator with 5% CO2.
All reagents and media were pre-warmed to room temperature prior to the beginning of the experiment. Substrate diluent and the light-sensitive Substrate were thawed out right before use.
BD 96-well Matrigel-coated plates (Fisher, Cat #: 08-774-166) with GLUTag cells were rehydrated using 100 μL of plating media (Invitrogen's (Cat #: 31985) OPTI-Modified Eagle's Medium (MEM) with 10% FBS and 1× penn/strep antibiotic mix) and incubated for 30 minutes in a 37° C. incubator with 5% CO2. GLUTag cells were then trypsinized and counted. A cell dilution with seeding density of 7.5×10^5 cells/ml of GLUTag cells was created. The rehydration media was aspirated from the Matrigel coated plate. […] of cell dilution were plated into each well of the plate. The plates were then incubated overnight in a 37° C. incubator with 5% CO2.
The following protocol utilized the Millipore GLP-1 ELISA Kit (Cat. #: EGLP-35K) to analyze GLP-1 secretion from GLUTag cells in the presence of TRPM5 inhibitors/enhancers and glucose.
Stock solutions and dilution plates of TRPM5 inhibitors or enhancers were prepared. 1% of bovine serum albumin (BSA) was added to Krebb's Ringer Bicarbonate Buffer (KRBB) right before use. KRBB consists of 118.5 mM NaCl, 2.54 mM CaCl2.2H2O, 1.19 mM KH2PO4, 4.74 mM KCl, 25 mM NaHCO3, 1.19 mM MgSO4.7H2O, and 10 mM HEPES buffer at pH 7.4. The cell plates were incubated with 100 μL of KRBB for 30 minutes. The KRBB buffer was then aspirated. This incubation step was repeated once. The KRBB buffer was aspirated and replaced with 150 μL of the same buffer containing various concentration of TRPM5 inhibitors or enhancers and glucose, i.e. 12.5 mM glucose and 1.5 μM TRPM5 inhibitors. KRBB buffer without the TRPM5 inhibitors/enhancers and glucose were also tested in triplicates. Static incubations of treated cells were then performed for 2 h in a 37° C. incubator with 5% CO2.
During the last 30 minutes of the two-hour incubation, 96-well ELISA plates were prepared as follows. […]

As for `COc1ccc(/C=N/NC(=O)Cc2cccc3ccccc23)cc1OC` [Example 3, (E)-N′-(3,4-Dimethoxybenzylidene)-2-(naphthalene-1-yl)acetohydrazide], the GLP-1 secretion result is listed as “increase GLP-1 secretion”; the “efficacy and potency of GLP-1 secretion, compared between compounds” value is “increases the efficacy of GLP-1 secretion”.
The like results for `COc1ccc(/C=N/NC(=O)CCn2c3ccccc3c3ccccc32)cc1OC` [Example 23, 3-Carbazol-9-ylpropionic acid (3,4-dimethoxybenzylidene)hydrazide] were, in that order, “increase GLP-1 secretion” and “more potent than the compound of Example 3”.
